Target: LRRK2 (Homo sapiens (Human), UniProt Q5S007)
Assay: In Vitro LRRK2 Assay (LabChip 3000, fluorescently-labeled peptide substrate)
Type: biochemical
Conditions: ATP 130 μM, substrate 1 μM, 2 hours, ambient temperature; LRRK2 variant not given; read-out: Ki (μM), affinity values for LRRK2
Experimental: This assay was used to determine a compound's potency in inhibiting activity of LRRK2 by determining, Kiapp, IC50, or percent inhibition values. In a polypropylene plate, LRRK2, fluorescently-labeled peptide substrate, ATP and test compound were incubated together. Using a LabChip 3000 (Caliper Life Sciences), after the reaction the substrate was separated by capillary electrophoresis into two populations: phosphorylated and unphosphorylated. The relative amounts of each were quantitated by fluorescence intensity. LRRK2 Ki was determined according to the equation: Y=V0*(1−((x+Ki*(1+S/Km)+Et)/(2*Et)−(((x+Ki*(1+S/Km)+Et)^2−(4*Et*x))^0.5)/(2*Et))).
Ki values in Table 4 and elsewhere herein are shown in μM.
Assay conditions and materials used were as follows:
Compound Plate Preparation:
For serial dilutions, 34.6 μl DMSO was added to columns 3-24.
Total and Blank Preparation:
In Complete Reaction Buffer, substrate was diluted to 4 μM. Equal volumes of Complete Reaction Buffer and 4 μM substrate were combined to obtain the blank. Equal volumes of Complete Reaction Buffer and 4 μM substrate were combined and to the combined solution was added 2× final LRRK2 concentration.
To a 50 μl polypropylene plate, 5 μl/well buffer/substrate was added by hand to Blank wells. A Biomek FX was used to start the kinase reaction (“PLK SAR 23 ATP”). The following were added to the appropriate wells: • 2 μl compound+23 μl ATP; • 5 μl/well compound/ATP in Assay Plate; • 5 μl/well kinase/substrate in Assay Plate;
The plate was incubated for 2 hours in the dark. Biomek FX was used to stop the kinase reaction (“PLK Stop”), and 10 μl/well Stop solution was added to the Assay Plate. Results were read on the LabChip 3000.
The LabChip 3000 was run using the job “LRRK2 IC50” with the following job settings: • Pressure: −1.4 psi • Downstream voltage: −500 V • Upstream voltage: −2350 V • Post sample buffer sip time: 75 seconds • Post dye buffer sip time: 75 seconds • Final delay time: 200 seconds Parkinson's Disease Animal Model

Chain of LRRK2 (Q5S007 whole entry G2019S): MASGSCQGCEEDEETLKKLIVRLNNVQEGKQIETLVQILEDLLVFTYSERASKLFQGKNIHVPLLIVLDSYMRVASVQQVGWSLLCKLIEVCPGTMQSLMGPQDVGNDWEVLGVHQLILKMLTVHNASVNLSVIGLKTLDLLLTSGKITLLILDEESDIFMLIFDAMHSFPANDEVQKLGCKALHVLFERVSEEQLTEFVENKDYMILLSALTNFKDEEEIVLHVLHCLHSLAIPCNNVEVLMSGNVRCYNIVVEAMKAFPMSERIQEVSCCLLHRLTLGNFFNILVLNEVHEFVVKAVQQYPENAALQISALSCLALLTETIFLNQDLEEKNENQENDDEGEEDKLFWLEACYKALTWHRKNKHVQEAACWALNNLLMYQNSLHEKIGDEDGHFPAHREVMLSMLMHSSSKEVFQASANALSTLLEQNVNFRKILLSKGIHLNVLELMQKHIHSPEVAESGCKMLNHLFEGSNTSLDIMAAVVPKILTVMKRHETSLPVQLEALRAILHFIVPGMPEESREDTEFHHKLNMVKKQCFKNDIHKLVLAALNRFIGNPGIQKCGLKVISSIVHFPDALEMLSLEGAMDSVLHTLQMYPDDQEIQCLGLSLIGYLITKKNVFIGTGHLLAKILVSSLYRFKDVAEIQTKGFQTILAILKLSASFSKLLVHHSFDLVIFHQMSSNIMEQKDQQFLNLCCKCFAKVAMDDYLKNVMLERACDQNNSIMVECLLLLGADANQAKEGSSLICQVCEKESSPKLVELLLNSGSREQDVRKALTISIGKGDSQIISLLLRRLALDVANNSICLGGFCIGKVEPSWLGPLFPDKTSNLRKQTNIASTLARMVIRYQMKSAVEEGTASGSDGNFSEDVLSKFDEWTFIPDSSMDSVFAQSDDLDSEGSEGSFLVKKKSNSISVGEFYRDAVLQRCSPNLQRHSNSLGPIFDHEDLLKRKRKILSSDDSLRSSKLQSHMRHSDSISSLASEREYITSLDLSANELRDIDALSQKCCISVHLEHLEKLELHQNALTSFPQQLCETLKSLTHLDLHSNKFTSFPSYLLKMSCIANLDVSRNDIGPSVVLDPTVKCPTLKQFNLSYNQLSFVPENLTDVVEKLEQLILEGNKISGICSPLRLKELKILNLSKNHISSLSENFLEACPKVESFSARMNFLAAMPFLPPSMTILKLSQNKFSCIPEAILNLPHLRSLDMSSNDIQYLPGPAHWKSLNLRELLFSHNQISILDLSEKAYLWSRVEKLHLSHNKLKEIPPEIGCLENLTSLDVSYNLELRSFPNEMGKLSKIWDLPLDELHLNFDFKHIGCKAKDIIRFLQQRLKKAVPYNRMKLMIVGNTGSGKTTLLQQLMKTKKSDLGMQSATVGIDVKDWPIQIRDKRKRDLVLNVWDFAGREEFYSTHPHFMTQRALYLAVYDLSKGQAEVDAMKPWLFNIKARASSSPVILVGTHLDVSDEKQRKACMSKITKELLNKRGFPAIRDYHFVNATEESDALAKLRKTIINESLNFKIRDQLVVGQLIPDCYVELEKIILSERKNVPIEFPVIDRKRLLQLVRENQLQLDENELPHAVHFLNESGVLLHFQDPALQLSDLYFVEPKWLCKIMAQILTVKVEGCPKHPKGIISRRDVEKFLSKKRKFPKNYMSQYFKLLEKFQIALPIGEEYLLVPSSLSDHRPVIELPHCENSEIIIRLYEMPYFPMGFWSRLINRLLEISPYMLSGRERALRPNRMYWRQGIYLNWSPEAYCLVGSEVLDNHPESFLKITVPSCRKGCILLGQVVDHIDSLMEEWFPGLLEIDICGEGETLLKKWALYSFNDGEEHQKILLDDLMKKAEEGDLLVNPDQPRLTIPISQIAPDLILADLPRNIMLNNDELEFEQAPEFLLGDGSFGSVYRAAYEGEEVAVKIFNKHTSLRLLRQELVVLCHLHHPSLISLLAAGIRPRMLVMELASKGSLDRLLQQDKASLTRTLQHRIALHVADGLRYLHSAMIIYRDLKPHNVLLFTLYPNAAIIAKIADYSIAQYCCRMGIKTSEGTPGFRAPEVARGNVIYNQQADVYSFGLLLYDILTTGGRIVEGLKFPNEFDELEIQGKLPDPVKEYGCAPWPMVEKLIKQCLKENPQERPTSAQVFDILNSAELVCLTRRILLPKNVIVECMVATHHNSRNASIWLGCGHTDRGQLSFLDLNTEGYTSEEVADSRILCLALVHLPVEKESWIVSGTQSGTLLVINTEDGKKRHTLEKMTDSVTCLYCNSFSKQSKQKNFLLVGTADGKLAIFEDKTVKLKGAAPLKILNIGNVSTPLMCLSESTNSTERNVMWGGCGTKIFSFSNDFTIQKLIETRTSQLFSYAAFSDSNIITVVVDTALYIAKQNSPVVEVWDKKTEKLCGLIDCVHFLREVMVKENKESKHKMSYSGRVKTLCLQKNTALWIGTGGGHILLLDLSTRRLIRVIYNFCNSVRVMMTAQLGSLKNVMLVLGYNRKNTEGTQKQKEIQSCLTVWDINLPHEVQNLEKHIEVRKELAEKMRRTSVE

| Ki [µM] | Compound |
| --- | --- |
| 0.03 | CC(C)n1cc(Nc2[nH]nc3ccnc(OC4CCOCC4)c23)cn1 [Example 164, N-(1-Isopropyl-1H-pyrazol-4-yl)-4-(tetrahydro-2H-pyran-4-yloxy)-1H-pyrazolo[4,3-c]pyridin-3-amine] |
| 0.011 | c1cc2[nH]nc(-c3cnn(CC4CCOCC4)c3)c2c(OC2CCOCC2)n1 [Example 93, 3-(1-((Tetrahydro-2H-pyran-4-yl)methyl)-1H-pyrazol-4-yl)-4-(tetrahydro-2H-pyran-4-yloxy)-1H-pyrazolo[4,3-c]pyridine] |
| 0.021 | CC(=O)Nc1ccc(-c2cc(-c3n[nH]c4ccnc(OC5CCOCC5)c34)ccn2)cn1 [Example 207, N-(4-(4-(tetrahydro-2H-pyran-4-yloxy)-1H-pyrazolo[4,3-c]pyridin-3-yl)-2,3′-bipyridin-6′-yl)acetamide] |
| 0.014 | O=C(CCc1[nH]nc2ccnc(OC3CCCCC3)c12)N1CCC[C@H](c2ccccc2)C1 [Example 6, 3-[4-(Cyclohexyloxy)-1H-pyrazolo[4,3-c]pyridin-3-yl]-1-[(3R)-3-phenylpiperidin-1-yl]propan-1-one] |
| 0.014 | c1cc2[nH]nc(-c3ccc4nc[nH]c4c3)c2c(OC2CCOCC2)n1 [Example 139, 3-(1H-Benzo[d]imidazol-6-yl)-4-(tetrahydro-2H-pyran-4-yloxy)-1H-pyrazolo[4,3-c]pyridine] |
| 0.271 | Cc1[nH]nc2cc(C3CC3)nc(OC3CCCCC3)c12 [Example 148, 4-(Cyclohexyloxy)-6-cyclopropyl-3-methyl-1H-pyrazolo[4,3-c]pyridine] |
| 0.013 | c1cc(-c2n[nH]c3ccnc(OC4CCOC4)c23)cc(N2CCOCC2)n1 (centres unmarked) [Example 190, 4-(4-(4-(tetrahydrofuran-3-yloxy)-1H-pyrazolo[4,3-c]pyridin-3-yl)pyridin-2-yl)morpholine] |
| 0.034 | CC1CCCN(C(=O)CCc2[nH]nc3ccnc(NC4CCOCC4)c23)C1 (stereo in doubt) [Example 2, 1-[(3R)-3-methylpiperidin-1-yl]-3-[4-(tetrahydro-2H-pyran-4-ylamino)-1H-pyrazolo-[4,3-c]pyridin-3-yl]propan-1-one] |
| 0.007 | CC(C)n1cc(-c2n[nH]c3ccnc(OC4CCOC4)c23)cn1 (centres unmarked) [Example 224, 3-(1-Isopropyl-1H-pyrazol-4-yl)-4-(tetrahydro-furan-3-yloxy)-1H-pyrazolo[4,3-c]pyridine] |
| 0.09 | COc1nccc2n[nH]c(-c3ccc(S(C)(=O)=O)cc3)c12 [Example 173, 4-methoxy-3-(4-(methylsulfonyl)phenyl)-1H-pyrazolo[4,3-c] pyridine] |
| 0.165 | c1cc(Nc2[nH]nc3ccnc(OC4CCOCC4)c23)ccn1 [Example 163, N-(Pyridin-4-yl)-4-(tetrahydro-2H-pyran-4-yloxy)-1H-pyrazolo[4,3-c]pyridin-3-amine] |
| 0.012 | CCn1cc(-c2cc(-c3n[nH]c4ccnc(OC5CCOCC5)c34)ccn2)cn1 [Example 213, 3-(2-(1-ethyl-1H-pyrazol-4-yl)pyridin-4-yl)-4-(tetrahydro-2H-pyran-4-yloxy)-1H-pyrazolo[4,3-c]pyridine] |
| 0.066 | CC(=O)Nc1ccccc1-c1cc(-c2n[nH]c3ccnc(OC4CCOCC4)c23)ccn1 [Example 206, N-(2-(4-(4-(tetrahydro-2H-pyran-4-yloxy)-1H-pyrazolo[4,3-c]pyridin-3-yl)pyridin-2-yl)phenyl)acetamide] |
| 0.078 | CC[C@@H](C)Oc1nccc2[nH]nc(C3CC3)c12 [Example 29, 3-Cyclopropyl-4-[(2R)-butan-2-yloxy)-1H-pyrazolo[4,3-c]pyridine] |
| 0.108 | COc1nccc2[nH]nc(-c3cnn(CC4(C)COC4)c3)c12 [Example 89, 4-Methoxy-3-(1-((3-methyloxetan-3-yl)methyl)-1H-pyrazol-4-yl)-1H-pyrazolo[4,3-c]pyridine] |
| 0.08 | COc1cc(-c2n[nH]c3ccnc(OC)c23)ccn1 [Example 106, 4-Methoxy-3-(2-methoxypyridin-4-yl)-1H-pyrazolo[4,3-c]pyridine] |
| 0.009 | c1cc(-c2n[nH]c3ccnc(OC4CCOCC4)c23)cc(N2CCC2)n1 [Example 114, 3-(2-(Azetidin-1-yl)pyridin-4-yl)-4-(tetrahydro-2H-pyran-4-yloxy)-1H-pyrazolo[4,3-c]pyridine] |
| 0.055 | c1cc2[nH]nc(-c3cnn(CC4CCC4)c3)c2c(OC2CCCCC2)n1 [Example 41, 3-[1-(Cyclobutylmethyl)-1H-pyrazol-4-yl]-4-(cyclohexyloxy)-1H-pyrazolo[4,3-c]pyridine] |

| Ki [µM] | Compound |
| --- | --- |
| 0.01 | c1cc2[nH]nc(-c3ccc4c(c3)ncn4C3CCOC3)c2c(OC2CCOCC2)n1 (centres unmarked) [Example 129, 4-(tetrahydro-2H-pyran-4-yloxy)-3-(1-(tetrahydrofuran-3-yl)-1H-benzo[d]imidazol-5-yl)-1H-pyrazolo[4,3-c]pyridine] |
| 0.011 | CC(=O)Nc1ccc(-c2cc(-c3n[nH]c4ccnc(OC5CCOCC5)c34)ccn2)cc1 [Example 210, N-(4-(4-(4-(tetrahydro-2H-pyran-4-yloxy)-1H-pyrazolo[4,3-c]pyridin-3-yl)pyridin-2-yl)phenyl)acetamide] |
| 0.032 | CC(C)n1cc2ccc(-c3n[nH]c4ccnc(OC5CCOCC5)c34)cc2n1 [Example 143, 3-(2-isopropyl-2H-indazol-6-yl)-4-(tetrahydro-2H-pyran-4-yloxy)-1H-pyrazolo[4,3-c]pyridine] |
| 0.154 | CNC(=O)c1cccc(-c2[nH]nc3cc(C)nc(OC4CCOCC4)c23)c1 [Example 171, N-methyl-3-(6-methyl-4-(tetrahydro-2H-pyran-4-yloxy)-1H-pyrazolo[4,3-c]pyridin-3-yl)benzamide] |
| 0.012 | c1ccc2ncc(-c3n[nH]c4ccnc(OC5CCOCC5)c34)cc2c1 [Example 150, 3-(4-(Tetrahydro-2H-pyran-4-yloxy)-1H-pyrazolo[4,3-c]pyridin-3-yl)quinoline] |
| 0.05 | CN(C)c1cccc(-c2[nH]nc3ccnc(OC4CCOCC4)c23)c1 [Example 153, N,N-Dimethyl-3-(4-(tetrahydro-2H-pyran-4-yloxy)-1H-pyrazolo[4,3-c]pyridin-3-yl)aniline] |
| 0.017 | N#CCc1cccc(-c2[nH]nc3ccnc(OC4CCOCC4)c23)c1 [Example 151, 2-(3-(4-(Tetrahydro-2H-pyran-4-yloxy)-1H-pyrazolo[4,3-c]pyridin-3-yl)phenyl)acetonitrile] |
| 0.0003 | Cn1cc(/C=C/c2n[nH]c3ccnc(OC4CCCCC4)c23)cn1 [Example 52, 4-(Cyclohexyloxy)-3-[(E)-2-(1-methyl-1H-pyrazol-4-yl)ethenyl]-1H-pyrazolo[4,3-c]pyridine] |
| 0.026 | c1cc(-c2cc(-c3n[nH]c4ccnc(OC5CCOCC5)c34)ccn2)ccn1 [Example 198, 3-(2,4′-bipyridin-4-yl)-4-(tetrahydro-2H-pyran-4-yloxy)-1H-pyrazolo[4,3-c]pyridine] |
| 0.009 | N#Cc1cccc(-c2cc(-c3n[nH]c4ccnc(OC5CCOCC5)c34)ccn2)c1 [Example 201, 3-(4-(4-(tetrahydro-2H-pyran-4-yloxy)-1H-pyrazolo[4,3-c]pyridin-3-yl)pyridin-2-yl) benzonitrile] |
| 0.013 | c1cc2[nH]nc(-c3ccc4cn[nH]c4c3)c2c(OC2CCOCC2)n1 [Example 138, 3-(1H-Indazol-6-yl)-4-(tetrahydro-2H-pyran-4-yloxy)-1H-pyrazolo[4,3-c]pyridine] |
| 0.076 | O=C(c1ccc(-c2[nH]nc3ccnc(OC4CCOCC4)c23)cc1)N1CCOCC1 [Example 133, Morpholino(4-(4-(tetrahydro-2H-pyran-4-yloxy)-1H-pyrazolo[4,3-c]pyridin-3-yl)phenyl)methanone] |
| 0.0024 | CC(C)Oc1nccc2[nH]nc(-c3cc(C(=O)NC4COC4)n(C(C)C)c3)c12 [Example 59, 4-(4-Isopropoxy-1H-pyrazolo[4,3-c]pyridin-3-yl)-1-isopropyl-N-(oxetan-3-yl)-1H-pyrrole-2-carboxamide] |
| 0.158 | Cc1[nH]nc2ccnc(OC3CCOC3)c12 (centres unmarked) [Example 31] |
| 0.046 | c1ncc(-c2cc(-c3n[nH]c4ccnc(OC5CCOCC5)c34)ccn2)cn1 [Example 199, 3-(2-(pyrimidin-5-yl)pyridin-4-yl)-4-(tetrahydro-2H-pyran-4-yloxy)-1H-pyrazolo[4,3-c]pyridine] |
| 0.027 | O=C(NC1CC1)c1cccc(-c2[nH]nc3ccnc(OC4CCOCC4)c23)c1 [Example 155, N-Cyclopropyl-3-(4-(tetrahydro-2H-pyran-4-yloxy)-1H-pyrazolo[4,3-c]pyridin-3-yl)benzamide] |
| 0.107 | c1cc(CN2CCOCC2)cc(-c2[nH]nc3ccnc(OC4CCOCC4)c23)c1 [Example 161, 4-(3-(4-(Tetrahydro-2H-pyran-4-yloxy)-1H-pyrazolo[4,3-c]pyridin-3-yl)benzyl)morpholine] |

From patent publication US8569281B2, “Compounds and their administration for treating a neurodegenerative disease as well as a method for identifying a compound capable of inhibiting a kinase, such as LRRK” (Medical Research Council Technology, priority 2010, dated 2013)
